Values quoted from earlier work as cited in paper PMC12281572.
Where “and” joins values, the source holds several entries; their conditions need not be identical. Equal values may be shown once.

Test: FTIR, 4-fluorophenol as donor (the pK_BHX database, per the paper)
Conditions: CCl4; 25 C

Row | Structure (SMILES) | pK_BHX (log10 Kf of the 1:1 H-bond complex with 4-fluorophenol, by FTIR)
1 | CC1(C)CCCC(C)(C)N1 | 1.88 log units
2 | CCCCS(=O)CCCC | 2.65 log units
3 | NC12CC3CC(CC(C3)C1)C2 | 2.3 log units
4 | N#CN1CCOCC1 | 1.34 log units
5 | CC(=O)N1CCCCC1 | 2.45 log units
6 | C=COCC | 0.1 log units
7 | Cn1ccccc1=O | 2.5 log units
8 | Nc1ccccn1 | 2.12 log units
9 | c1ccc(CNCc2ccccc2)cc1 | 1.34 log units
10 | c1ccc2c(c1)ccc1ccccc12 | -0.53 log units
11 | C1OCOCO1 | 0.02 log units
12 | CCCCCI | -0.37 log units
13 | CC(C)(C)OC(C)(C)C | 0.75 log units
14 | CCN(CC)C(=O)c1ccccc1 | 2.26 log units
15 | CCOC(=O)c1ccc(Br)cc1 | 0.78 log units
16 | C#CCCCC | -0.22 log units
17 | COC(OC)(OC)OC | 0.26 log units
18 | CC(=O)c1cccc([N+](=O)[O-])c1 | 0.18 log units
19 | O=C1CCCC1 | 1.27 log units
20 | CCCCCF | -0.06 log units
21 | IC12CC3CC(CC(C3)C1)C2 | -0.19 log units
22 | CCCO | 1.0 log units
23 | CN(C)C(=S)Cl | 0.5 log units
24 | NCCCN | 2.31 log units

Row | Structure (SMILES) | pK_BHX (log10 Kf of the 1:1 H-bond complex with 4-fluorophenol, by FTIR)
25 | O=C1c2ccccc2Cc2ccccc21 | 1.25 log units
26 | FC12CC3CC(CC(C3)C1)C2 | 0.31 log units
27 | Fc1nc(F)c(F)c(F)c1F | -0.49 log units
28 | c1ccc2c(c1)cnc1ccccc12 | 1.87 log units
29 | C1COCCOCCOCCO1 | 1.13 log units
30 | CC12CCC(CC1)C(C)(C)O2 | 1.38 log units
31 | CC(=O)C12CC3CC(CC(C3)C1)C2 | 1.3 log units
32 | N#Cc1ccccc1 | 0.8 log units
33 | C1=CCCCC1 | -0.82 log units
34 | CC(=O)Nc1ccccc1 | 1.69 log units
35 | CNC1CCCCC1 | 2.24 log units
36 | O=C1CCCCC1 | 1.39 log units
37 | CC(C)c1ccccc1 | -0.34 log units
38 | FC1CCCCC1 | 0.09 log units
39 | CCCCCCCCN | 2.27 log units
40 | O | 0.65 log units
41 | CCOCCOCC | 1.09 log units
42 | Cc1cccc(C)c1[N+](=O)[O-] | 0.29 log units
43 | O=C(C(=O)c1ccccc1)c1ccccc1 | 0.44 log units
44 | O=Cc1ccc(Cl)cc1 | 0.63 log units
45 | NCCN | 2.25 log units
46 | CC(C)C(=O)N(C)C | 2.26 log units
47 | Cc1cccc(C)c1 | -0.28 log units
48 | O=C(C12CC3CC(CC(C3)C1)C2)C12CC3CC(CC(C3)C1)C2 | 1.17 log units

The next lines start with the values.

Row | pK_BHX (log10 Kf of the 1:1 H-bond complex with 4-fluorophenol, by FTIR) | Structure (SMILES)
49 | 1.06 log units | CCN(CC)C(=O)C(F)(F)F
50 | 1.02 log units | CN(C)C(=S)c1ccccc1
51 | 1.56 log units | [O-][n+]1cc(Cl)cc(Cl)c1
52 | 2.24 log units | CCC(=O)NC
53 | 2.43 log units | CN(C)C=NN(C)C
54 | 0.83 log units | N#Cc1ccc(-c2ccccc2)cc1
55 | 2.22 log units | Cc1ccc(N=CNc2ccc(C)cc2)cc1
56 | 2.62 log units | CN=C(c1ccccc1)N(C)C
57 | 1.76 log units | CC(=O)c1ccc(N(C)C)cc1
58 | 0.99 log units | CC(C)(C)C#N
59 | 1.41 log units | COc1cccc(N=C(c2ccccc2)N(C)c2ccccc2)c1
60 | 2.2 log units | CNC(C)C
61 | 1.7 log units | CN(C)C=CC#N
62 | 0.64 log units | N#Cc1ccccc1F
63 | 2.09 log units | CCCN=C(NC)NC#N
64 | 0.53 log units | C1=COCC1
65 | 2.3 log units | CN(C)C(=O)C12CC3CC(CC(C3)C1)C2
66 | 2.25 log units | CCNC
67 | 1.11 log units | CC(C)OC(C)C
68 | 2.07 log units | Cc1ccc(N=CN(C)C)cc1
69 | 1.53 log units | COc1ccc(N=C(c2ccccc2)N(C)c2ccccc2)cc1
70 | 1.52 log units | FC(F)(F)c1cccc(C2=NCCC2)c1

Row | pK_BHX (log10 Kf of the 1:1 H-bond complex with 4-fluorophenol, by FTIR) | Structure (SMILES)
71 | 2.07 log units | CN(C)C(=O)c1ccc(Br)cc1
72 | 2.47 log units | CC(=O)N(C(C)C)C(C)C
73 | 1.26 log units | NCc1cccc([N+](=O)[O-])c1
74 | 1.85 log units | CC(=Nc1ccccc1)Nc1ccc(C)cc1
75 | 1.22 log units | CC1COC(=O)O1 (stereo not drawn)
76 | -0.02 log units | CSCc1ccccc1
77 | 1.29 log units | CC(C)(C)N=Cc1ccccc1
78 | 1.25 log units | CCc1ccc(C(C)=O)cc1
79 | 1.66 log units | CC(=Nc1ccccc1)Nc1ccccc1
80 | 1.6 log units | CN(C)C=NCC(F)(F)F
81 | 0.82 log units | CC(=O)c1cccc(Cl)c1
82 | 1.58 log units | CC(=Nc1ccc(Br)cc1)Nc1ccc(C)cc1
83 | 0.32 log units | c1ncncn1
84 | 0.41 log units | Cc1cccc(N(C)C)c1
85 | -0.23 log units | CC(C)(C)c1cc(C(C)(C)C)cc(C(C)(C)C)c1
86 | 2.06 log units | CC(=NC(=S)N(C)C)N(C)C
87 | 1.61 log units | O=C(c1ccccc1)N(c1ccccc1)c1ccccc1
88 | 2.14 log units | CN(C)C(=O)c1ccc(F)cc1
89 | 1.05 log units | CC(=Nc1cccc(Cl)c1)N(C)c1cccc(Cl)c1
90 | 1.03 log units | CCN(C)Cc1cccc(C(F)(F)F)c1
91 | 0.12 log units | CSC
92 | 1.88 log units | CN(C)CCCn1c2ccccc2c2ccccc21

Row | pK_BHX (log10 Kf of the 1:1 H-bond complex with 4-fluorophenol, by FTIR) | Structure (SMILES)
93 | 1.07 log units | c1cncnc1
94 | 0.68 log units | c1ccc2oncc2c1
95 | 1.48 log units | Cc1nc2ccccc2o1
96 | -0.32 log units | c1ccc(C2CCCCC2)cc1
97 | 2.33 log units | CCN(CC)c1ccc(C(=O)c2ccc(N(CC)CC)cc2)cc1
98 | 1.94 log units | COc1cccc(CN)c1
99 | 0.37 log units | CC(C)c1cccc(C(C)C)c1N
100 | 0.92 log units | CC(=O)c1ccc(C(C)=O)cc1
101 | 3.16 log units | CN=C(N(C)C)N(C)C
102 | 1.95 log units | CCOC(=O)N(CC)CC
103 | 0.39 log units | c1cc2c3c(c1)CCCN3CCC2
104 | 2.36 log units | CCC(=O)N(C)C
105 | 0.66 log units and 0.53 log units | CCOC(=O)c1ccc(C#N)cc1
106 | 1.08 log units | CCOC(=O)CC
107 | 2.29 log units | CCNC(C)=O
108 | 1.21 log units | CC1(C)CC(=O)C=C(Cl)C1
109 | 0.78 log units | COc1cc(C#N)cc(OC)c1
110 | 2.03 log units | CC(C)N(C(=O)C(C)(C)C)C(C)C
111 | 0.69 log units | O=c1occo1
112 | 1.83 log units | CNC(=Nc1ccccc1)c1ccccc1
113 | 2.48 log units | C=CCN=CN(C)C
114 | 1.66 log units | Fc1cccc(C2=NCCC2)c1
